{"source": "patent US8017780B1", "about": "“Therapeutic compounds and uses thereof” (Myrexis, Inc., priority 2008, dated 2011)"}
{"biological_target": "T1, purified human Hsp90", "T1 construct": "purified human Hsp90 (Stressgen, SPP-770)", "test": "Hsp90 binding assay: displacement of BODIPY-labeled geldanamycin by fluorescence polarization", "conditions": "BODIPY-GM 10 nM, purified human Hsp90 30 nM, overnight at room temperature; read-out: GM Displacement From Purified Hsp90 measured by FP", "method": "The binding of exemplary compounds to purified Hsp90 can be assayed by measuring the displacement of BODIPY-labeled geldanamycin (BODIPY-GM) from purified human Hsp90, using a fluorescence polarization assay adapted from Kim et al. (Journal of Biomolecular Screening […]. Compound dilutions (in 100% DMSO) are added to black-bottom 96-well plates (Greiner; 2% DMSO final), and equal volumes of BODIPY-GM (10 nM final) and purified human Hsp90 (Stressgen, SPP-770; 30 nM final) in assay buffer (20 mM HEPES-KOH pH 7.3, 50 mM KCl, 5 mM MgCl2, 20 mM Na2MoO4, 0.01% NP-40, 0.1 mg/mL bovine gamma globulin [Invitrogen, P2045], 2 mM DTT) are added sequentially to yield a final volume of 50 microliters. Plates are incubated overnight at room temperature. Parallel and perpendicular fluorescence measurements are read (LJL BioSystems Analyst AD plate reader) at excitation/emission wavelengths of 485/530 nm. Background fluorescence (buffer only) is subtracted, and fluorescence polarization (FP) values, expressed in mP units, are calculated from parallel and perpendicular fluorescence readings as follows: FP=(parallel−perpendicular)/(parallel+perpendicular)*1000.\nPercent inhibition is calculated by normalizing the FP values to those obtained in parallel reactions containing DMSO and subtracting these normalized values from 100%. Intrinsic compound fluorescence is independently monitored, and FP data points confounded by compound fluorescence are excluded from the analysis.", "units": {"IC50": "µM"}}
{"smiles": "Nc1nccc2c1nc(Sc1cc3c(cc1Br)OCO3)n2CCC1CCN(C=O)CC1", "note": "[Example 1, 4-(2-[4-Amino-2-[(6-bromo-1,3-benzodioxol-5-yl)sulfanyl]-1H-imidazo[4,5-c]pyridin-1-yl]ethyl)piperidine-1-carbaldehyde]", "IC50": 5}
{"smiles": "CC(=O)N1CCC(CCn2c(Sc3cc4c(cc3Br)OCO4)nc3c(N)nccc32)CC1", "note": "[Example 2, 1-[4-(2-{4-Amino-2-[(6-bromo-1,3-benzodioxol-5-yl)sulfanyl]-1H-imidazo[4,5-c]pyridin-1-yl}ethyl)piperidin-1-yl]ethanone]", "IC50": 5}
{"smiles": "Nc1nccc2c1nc(Sc1cc3c(cc1Br)OCO3)n2CCc1ccccc1Cl", "note": "[Example 3, 2-[(6-Bromo-1,3-benzodioxol-5-yl)sulfanyl]-1-[2-(2-chlorophenyl)ethyl]-1H-imidazo[4,5-c]pyridin-4-amine]", "IC50": 2.4}
{"smiles": "C[C@H](O)C(=O)N1CCC(CCn2c(Sc3cc4c(cc3Br)OCO4)nc3c(N)nccc32)CC1", "note": "[Example 5, (2S)-1-[4-(2-{4-Amino-2-[(6-bromo-1,3-benzodioxol-5-yl)sulfanyl]-1H-imidazo[4,5-c]pyridin-1-yl}ethyl)piperidin-1-yl]-2-hydroxypropan-1-one]", "IC50": 1}
{"smiles": "CN(C)c1cc2c(cc1Sc1nc3c(N)nccc3n1CCC1CCN(C=O)CC1)OCO2", "note": "[Example 8]", "IC50": 0.11}
{"smiles": "CC(=O)O[C@@H](C)C(=O)N1CCC(CCn2c(Sc3cc4c(cc3N(C)C)OCO4)nc3c(N)nccc32)CC1", "note": "[Example 9, (2S)-1-[4-(2-{4-Amino-2-[(6-(dimethylamino)-1,3-benzodioxol-5-yl)sulfanyl]-1H-imidazo[4,5-c]pyridin-1-yl}ethyl)piperidin-1-yl]-1-oxopropan-2-yl acetate]", "IC50": 0.079}
{"smiles": "C[C@H](O)C(=O)N1CCC(CCn2c(Sc3cc4c(cc3N(C)C)OCO4)nc3c(N)nccc32)CC1", "note": "[Example 10, (2S)-1-[4-(2-{4-Amino-2-[(6-(dimethylamino)-1,3-benzodioxol-5-yl)sulfanyl]-1H-imidazo[4,5-c]pyridin-1-yl}ethyl)piperidin-1-yl]-2-hydroxypropan-1-one]", "IC50": 0.11}
